Assays:
[1] = Plasma pharmacokinetics of capecitabine and its metabolites after oral capecitabine in CES2-modified mice; format: in vivo, mouse; settings: oral capecitabine 500 mg/kg, plasma
Description: (§1) For capecitabine 2-h experiments, 6–7 female mice received oral capecitabine (500 mg/kg, 10 μL/g), and tail vein blood samples were collected at 0.125, 0.25, 0.5 and 1 h after drug administration. For the vinorelbine 4-h experiment, 6-7 male mice received vinorelbine intravenously (10 mg/kg, 5 μL/g) or orally (10 mg/kg, 10 μL/g) using a blunt-ended needle. Tail vein blood samples were collected at 0.125, 0.25, 0.5, 1 and 2 h after drug administration. […] At the last time point in each experiment (2 or 4 h), mice were anesthetized with 5% isoflurane and blood was collected by cardiac puncture. […] Plasma was isolated from the blood by centrifugation at 9000 × g for 6 min at 4 °C, and the plasma fraction was collected and stored at −30 °C until analysis.
(§2) Concentrations of capecitabine (and its metabolites) and vinorelbine (and its metabolite) in mouse plasma samples and organ homogenates were determined using two independent validated high-performance liquid chromatography-tandem mass spectrometry assays.
(§3) Pharmacokinetic parameters were calculated by non-compartmental methods using the PK solver software. […] Differences were considered statistically significant when P < 0.05. All data are presented as mean ± SD.

[2] = Tissue concentrations of capecitabine and its metabolites 2 h after oral capecitabine in CES2-modified mice; format: in vivo, mouse; settings: oral capecitabine 500 mg/kg
Description: as §1, §2, §3

**Q.** Which AUC0-2h ([1]; female Ces2^–/– mice) does the source give for `NCC(F)C(=O)O` (stereo not shown) [FBAL] here?
**A.** Its AUC0-2h is 1833 ± 504 ng·h/mL.

**Q.** And the “AUC0-2h ratio (metabolite/capecitabine)” value ([1]; female Ces2^–/– mice)?
**A.** Its value is 0.07 ± 0.04.

**Q.** And the Cmax ([1]; female Ces2^–/– mice)?
**A.** Its Cmax is 1684 ± 597 ng/mL.

**Q.** And the Tmax ([1]; female Ces2^–/– mice)?
**A.** The Tmax was 2.0 ± 0.0 h.

**Q.** What about the AUC0-2h ([1]; female Ces2^–/–A mice) of the same compound?
**A.** The AUC0-2h was 2910 ± 671 ng·h/mL.

**Q.** And the “AUC0-2h ratio (metabolite/capecitabine)” value ([1]; female Ces2^–/–A mice)?
**A.** The value was 0.12 ± 0.06.

**Q.** And the Cmax ([1]; female Ces2^–/–A mice)?
**A.** Its Cmax is 2923 ± 760 ng/mL.

**Q.** And the Tmax ([1]; female Ces2^–/–A mice)?
**A.** The Tmax was 1.8 ± 0.4 h.

**Q.** What about the AUC0-2h ([1]; female Ces2^–/–V mice) of the same compound?
**A.** Its AUC0-2h is 2874 ± 659 ng·h/mL.

**Q.** What about the “AUC0-2h ratio (metabolite/capecitabine)” value ([1]; female Ces2^–/–V mice) of the same compound?
**A.** The value was 0.20 ± 0.09.

**Q.** And the Cmax ([1]; female Ces2^–/–V mice)?
**A.** The Cmax was 2606 ± 698 ng/mL.

**Q.** What about the Tmax ([1]; female Ces2^–/–V mice) of the same compound?
**A.** Its Tmax is 2.0 ± 0.0 h.

**Q.** What about the AUC0-2h ([1]; female wild-type mice) of the same compound?
**A.** Its AUC0-2h is 1966 ± 158 ng·h/mL.

**Q.** And the “AUC0-2h ratio (metabolite/capecitabine)” value ([1]; female wild-type mice)?
**A.** Its value is 0.35 ± 0.08.

**Q.** And the Cmax ([1]; female wild-type mice)?
**A.** The Cmax was 1755 ± 308 ng/mL.

**Q.** And the Tmax ([1]; female wild-type mice)?
**A.** Its Tmax is 2.0 ± 0.0 h.

**Q.** What about the “CSI (small intestine tissue concentration)” value (“CSI” below) ([2]; female Ces2^–/– mice) of the same compound?
**A.** The value was 1239 ± 335 ng/g.

**Q.** What about the “Ccolon (colon concentration)” value ([2]; female Ces2^–/– mice) of the same compound?
**A.** The value was 1355 ± 281 ng/g.

**Q.** What about the “Cliver (liver concentration)” value ([2]; female Ces2^–/– mice) of the same compound?
**A.** The value was 59839 ± 11722 ng/g.

**Q.** What about the “Colon concentration ratio (metabolite/capecitabine)” value ([2]; female Ces2^–/– mice) of the same compound?
**A.** The value was 0.12 ± 0.05.

**Q.** And the “Liver concentration ratio (metabolite/capecitabine)” value ([2]; female Ces2^–/– mice)?
**A.** The value was 4.2 ± 2.7.

**Q.** And the “Small intestine concentration ratio (metabolite/capecitabine)” value ([2]; female Ces2^–/– mice)?
**A.** Its value is 0.08 ± 0.05.

**Q.** And the “CSI” value ([2]; female Ces2^–/–A mice)?
**A.** The value was 2193 ± 960 ng/g.

**Q.** And the “Ccolon (colon concentration)” value ([2]; female Ces2^–/–A mice)?
**A.** The value was 2105 ± 600 ng/g.

**Q.** And the “Cliver (liver concentration)” value ([2]; female Ces2^–/–A mice)?
**A.** Its value is 102959 ± 17203 ng/g.

**Q.** What about the “Colon concentration ratio (metabolite/capecitabine)” value ([2]; female Ces2^–/–A mice) of the same compound?
**A.** The value was 0.24 ± 0.02.

**Q.** What about the “Liver concentration ratio (metabolite/capecitabine)” value ([2]; female Ces2^–/–A mice) of the same compound?
**A.** Its value is 25 ± 11.

**Q.** What about the “Small intestine concentration ratio (metabolite/capecitabine)” value ([2]; female Ces2^–/–A mice) of the same compound?
**A.** The value was 0.15 ± 0.04.

**Q.** What about the “CSI” value ([2]; female Ces2^–/–V mice) of the same compound?
**A.** Its value is 1830 ± 655 ng/g.

**Q.** And the “Ccolon (colon concentration)” value ([2]; female Ces2^–/–V mice)?
**A.** Its value is 2080 ± 446 ng/g.

**Q.** And the “Cliver (liver concentration)” value ([2]; female Ces2^–/–V mice)?
**A.** Its value is 77125 ± 16534 ng/g.

**Q.** What about the “Colon concentration ratio (metabolite/capecitabine)” value ([2]; female Ces2^–/–V mice) of the same compound?
**A.** The value was 0.60 ± 0.36^###^.

**Q.** And the “Liver concentration ratio (metabolite/capecitabine)” value ([2]; female Ces2^–/–V mice)?
**A.** The value was 18 ± 16.

**Q.** What about the “Small intestine concentration ratio (metabolite/capecitabine)” value ([2]; female Ces2^–/–V mice) of the same compound?
**A.** Its value is 1.5 ± 2.0^###^^^.

**Q.** What about the “CSI” value ([2]; female wild-type mice) of the same compound?
**A.** The value was 1174 ± 174 ng/g.

**Q.** And the “Ccolon (colon concentration)” value ([2]; female wild-type mice)?
**A.** Its value is 1322 ± 249 ng/g.

**Q.** What about the “Cliver (liver concentration)” value ([2]; female wild-type mice) of the same compound?
**A.** Its value is 55840 ± 13861 ng/g.

**Q.** What about the “Colon concentration ratio (metabolite/capecitabine)” value ([2]; female wild-type mice) of the same compound?
**A.** The value was 0.62 ± 0.16.

**Q.** And the “Liver concentration ratio (metabolite/capecitabine)” value ([2]; female wild-type mice)?
**A.** Its value is 48 ± 19.

**Q.** What about the “Small intestine concentration ratio (metabolite/capecitabine)” value ([2]; female wild-type mice) of the same compound?
**A.** Its value is 0.86 ± 0.38.

Source: PMC11845761, “Intestinal human carboxylesterase 2 (CES2) expression rescues drug metabolism and most metabolic syndrome phenotypes in global Ces2 cluster knockout mice” (Acta Pharmacologica Sinica, 2024)
